Patent US20240190849A1, “AMINOPYRIMIDINE COMPOUNDS AND METHODS OF THEIR USE” (TYRA BIOSCIENCES, INC., priority 2021, published 2024)

Key:
Conditions in all cases: FGFR binding data
FGFR3 = biological target: T1, FGFR3 (Homo sapiens, UniProt P22607); experiment: Kinase binding assay (kinase-tagged T7 phage, affinity beads, qPCR readout), FGFR3
T1 construct: made in house; host or cells: E. coli derived from BL21, infected with T7 phage
Description: (§1) Kinase-tagged T7 phage strains were prepared in an E. coli host derived from the BL21 strain. E. coli were grown to log-phase and infected with T7 phage and incubated with shaking at 32° C. until lysis. The lysates were centrifuged and filtered to remove cell debris. Streptavidin-coated magnetic beads were treated with biotinylated small molecule ligands for 30 minutes at room temperature to generate affinity resins for kinase assays. The liganded beads were blocked with excess biotin and washed with blocking buffer SeaBlock (Pierce), 1% BSA, 0.05% Tween 20, 1 mM DTT to remove unbound ligand and to reduce non-specific binding. Binding reactions were assembled by combining kinases, liganded affinity beads, and test compounds in 1× binding buffer (20% SeaBlock, 0.17×PBS, 0.05% Tween 20, 6 mM DTT).
(§2) Test compounds were prepared as 111× stocks in 100% DMSO. Kds were determined using an 11-point 3-fold compound dilution series with three DMSO control points. All compounds for Kd measurements are distributed by acoustic transfer (non-contact dispensing) in 100% DMSO. The compounds were then diluted directly into the assays such that the final concentration of DMSO was 0.9%. All reactions performed in polypropylene 384-well plate. Each was a final volume of 0.02 ml. The assay plates were incubated at room temperature with shaking for 1 hour and the affinity beads were washed with wash buffer (1×PBS, 0.05% Tween 20). The beads were then re-suspended in elution buffer (1×PBS, 0.05% Tween 20, 0.5 μM non-biotinylated affinity ligand) and incubated at room temperature with shaking for 30 minutes. The kinase concentration in the eluates was measured by qPCR.
(§3) Binding constants were calculated with a standard dose-response curve using the Hill equation: […]
(§4) The Hill Slope was set to −1. Curves were fitted using a non-linear least square fit with the Levenberg-Marquardt algorithm.

FGFR3 (V555M) = biological target: T2, FGFR3 (V555M) (Homo sapiens, UniProt P22607, V555M); experiment: Kinase binding assay (kinase-tagged T7 phage, affinity beads, qPCR readout), FGFR3 (V555M)
T2 construct: made in house; host or cells: E. coli derived from BL21, infected with T7 phage
T2 sequence (P22607 23-806 V555M): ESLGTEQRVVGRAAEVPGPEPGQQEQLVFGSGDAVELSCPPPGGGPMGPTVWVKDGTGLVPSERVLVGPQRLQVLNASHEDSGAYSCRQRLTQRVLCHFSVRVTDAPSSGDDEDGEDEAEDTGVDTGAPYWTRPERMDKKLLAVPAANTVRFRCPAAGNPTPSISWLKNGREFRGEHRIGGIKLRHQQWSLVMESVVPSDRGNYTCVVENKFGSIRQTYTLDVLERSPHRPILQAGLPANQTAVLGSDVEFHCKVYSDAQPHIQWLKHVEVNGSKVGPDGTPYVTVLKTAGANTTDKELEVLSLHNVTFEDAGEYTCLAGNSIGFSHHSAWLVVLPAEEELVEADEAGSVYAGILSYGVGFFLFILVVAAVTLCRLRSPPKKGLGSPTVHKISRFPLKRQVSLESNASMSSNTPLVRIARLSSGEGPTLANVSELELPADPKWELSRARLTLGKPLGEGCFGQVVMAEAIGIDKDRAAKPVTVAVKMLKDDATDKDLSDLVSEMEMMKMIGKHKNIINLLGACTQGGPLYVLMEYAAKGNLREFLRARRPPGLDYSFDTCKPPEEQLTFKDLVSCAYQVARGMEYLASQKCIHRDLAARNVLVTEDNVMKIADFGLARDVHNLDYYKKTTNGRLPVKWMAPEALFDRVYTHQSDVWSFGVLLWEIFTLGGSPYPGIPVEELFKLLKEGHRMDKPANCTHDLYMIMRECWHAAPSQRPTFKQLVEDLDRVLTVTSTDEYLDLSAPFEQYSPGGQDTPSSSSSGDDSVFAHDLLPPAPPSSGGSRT
Description: as §1, §2, §3, §4

FGFR1 = biological target: T3, FGFR1 (Homo sapiens, UniProt P11362); experiment: Kinase binding assay (kinase-tagged T7 phage, affinity beads, qPCR readout), FGFR1
T3 construct: made in house; host or cells: E. coli derived from BL21, infected with T7 phage
T3 sequence (P11362 22-822): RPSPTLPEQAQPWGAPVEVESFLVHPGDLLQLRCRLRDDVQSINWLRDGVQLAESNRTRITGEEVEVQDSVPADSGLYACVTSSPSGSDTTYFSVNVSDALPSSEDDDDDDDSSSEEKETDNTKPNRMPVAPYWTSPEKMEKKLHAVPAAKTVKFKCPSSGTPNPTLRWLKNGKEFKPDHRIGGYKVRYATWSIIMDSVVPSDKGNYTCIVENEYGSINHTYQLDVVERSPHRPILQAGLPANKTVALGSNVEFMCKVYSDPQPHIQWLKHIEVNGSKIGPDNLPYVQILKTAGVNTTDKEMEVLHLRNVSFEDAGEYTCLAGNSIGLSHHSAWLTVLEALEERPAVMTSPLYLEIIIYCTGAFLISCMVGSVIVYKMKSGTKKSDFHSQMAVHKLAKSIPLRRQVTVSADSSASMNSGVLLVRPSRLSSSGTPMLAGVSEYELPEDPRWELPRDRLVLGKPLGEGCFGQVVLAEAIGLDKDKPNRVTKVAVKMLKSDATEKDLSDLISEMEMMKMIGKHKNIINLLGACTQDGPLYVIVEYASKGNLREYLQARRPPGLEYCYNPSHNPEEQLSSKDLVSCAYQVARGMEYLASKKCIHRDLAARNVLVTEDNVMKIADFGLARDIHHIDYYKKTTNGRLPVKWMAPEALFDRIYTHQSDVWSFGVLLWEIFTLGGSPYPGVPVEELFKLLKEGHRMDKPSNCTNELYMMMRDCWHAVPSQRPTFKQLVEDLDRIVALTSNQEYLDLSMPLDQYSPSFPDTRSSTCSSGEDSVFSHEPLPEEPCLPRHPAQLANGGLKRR
Description: as §1, §2, §3, §4

FGFR2 = biological target: T4, FGFR2 (Homo sapiens, UniProt P21802); experiment: Kinase binding assay (kinase-tagged T7 phage, affinity beads, qPCR readout), FGFR2
T4 construct: made in house; host or cells: E. coli derived from BL21, infected with T7 phage
T4 sequence (P21802 22-821): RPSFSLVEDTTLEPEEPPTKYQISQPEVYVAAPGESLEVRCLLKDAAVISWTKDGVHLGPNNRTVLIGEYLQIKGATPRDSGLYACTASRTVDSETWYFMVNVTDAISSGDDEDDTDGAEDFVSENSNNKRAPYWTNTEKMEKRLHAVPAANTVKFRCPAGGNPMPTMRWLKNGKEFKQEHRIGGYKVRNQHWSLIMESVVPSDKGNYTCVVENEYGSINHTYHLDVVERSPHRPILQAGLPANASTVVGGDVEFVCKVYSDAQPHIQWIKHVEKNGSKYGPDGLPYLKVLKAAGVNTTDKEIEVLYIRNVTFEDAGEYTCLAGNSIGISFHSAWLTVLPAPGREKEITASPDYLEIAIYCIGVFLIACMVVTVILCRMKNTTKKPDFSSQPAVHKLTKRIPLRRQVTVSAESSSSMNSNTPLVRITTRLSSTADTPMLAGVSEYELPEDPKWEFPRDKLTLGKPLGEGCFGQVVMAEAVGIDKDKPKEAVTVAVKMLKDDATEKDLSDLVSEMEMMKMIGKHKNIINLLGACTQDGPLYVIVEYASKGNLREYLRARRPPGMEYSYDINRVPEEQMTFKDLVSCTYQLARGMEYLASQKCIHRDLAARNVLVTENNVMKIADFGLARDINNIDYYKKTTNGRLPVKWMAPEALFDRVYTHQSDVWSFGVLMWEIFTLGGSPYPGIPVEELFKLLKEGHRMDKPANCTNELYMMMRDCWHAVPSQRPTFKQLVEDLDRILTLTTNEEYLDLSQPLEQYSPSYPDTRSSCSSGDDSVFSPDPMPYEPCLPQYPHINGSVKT
Description: as §1, §2, §3, §4

T1 sequence (P22607 23-806): as the sequence (P22607 23-806 V555M) above, with M533V counted along it

Compound	Kd (FGFR3) [nM]	Kd (FGFR3 (V555M)) [nM]	Kd (FGFR1) [nM]	Kd (FGFR2) [nM]
Cc1cn(-c2nc(Nc3cnn(C[C@H](C)O)c3)ncc2F)c2ncc(NC(=O)/C=C/CN3CCOCC3)cc12 [Example 198, (E)-N-[1-[5-fluoro-2-[[1-[(2S)-2-hydroxypropyl]pyrazol-4-yl]amino]pyrimidin-4-yl]-3-methyl-pyrrolo[2,3-b]pyridin-5-yl]-4-morpholino-but-2-enamide]	100 to 250	250 to 1000	250 to 1000	100 to 250
C=C(F)C(=O)Nc1cnc2c(c1)c(C)cn2-c1nc(Nc2ccn(C)n2)ncc1C [Example 117, 2-fluoro-N-[3-methyl-1-[5-methyl-2-[(1-methylpyrazol-3-yl)amino]pyrimidin-4-yl]pyrrolo[2,3-b]pyridin-5-yl]prop-2-enamide]	> 1000	> 1000	> 1000	> 1000
C=C(C)C(=O)Nc1cnc2c(c1)c(C)cn2-c1nc(Nc2ccn(C)n2)ncc1C [Example 118, 2-methyl-N-[3-methyl-1-[5-methyl-2-[(1-methylpyrazol-3-yl)amino]pyrimidin-4-yl]pyrrolo[2,3-b]pyridin-5-yl]prop-2-enamide]	> 1000	> 1000	> 1000	> 1000
C=CC(=O)Nc1ccc2c(-c3nc(Nc4ccc(N5CCOCC5)c(OC)c4)ncc3Cl)cn(C)c2c1 [Example 51, N-[3-[5-chloro-2-(3-methoxy-4-morpholino-anilino)pyrimidin-4-yl]-1-methyl-indol-6-yl]prop-2-enamide]	0.1 to 100	0.1 to 100	0.1 to 100	0.1 to 100
C=CC(=O)Nc1ccc2c(-c3ccnc(Nc4cn(C)nc4C)n3)cn(C)c2c1 [Example 172, N-[3-[2-[(1,3-dimethylpyrazol-4-yl)amino]pyrimidin-4-yl]-1-methyl-indol-6-yl]prop-2-enamide]	0.1 to 100	0.1 to 100	250 to 1000	0.1 to 100
C=CC(=O)Nc1ccc2c(-c3nc(Nc4ccc(N5CCOCC5)nc4)ncc3Cl)cn(C)c2c1 [Example 45, N-[3-[5-chloro-2-[(6-morpholino-3-pyridyl)amino]pyrimidin-4-yl]-1-methyl-indol-6-yl]prop-2-enamide]	0.1 to 100	0.1 to 100	0.1 to 100	0.1 to 100
C=CC(=O)Nc1ccc2c(ccn2-c2nc(Nc3cccc(OCCN4CCOCC4)c3)ncc2Cl)c1 [Example 6, N-[1-[5-chloro-2-[3-(2-morpholinoethoxy)anilino]pyrimidin-4-yl]indol-5-yl]prop-2-enamide]	250 to 1000	0.1 to 100	250 to 1000	250 to 1000
C=CC(=O)Nc1ccc2c(c1)c(C)cn2-c1nc(Nc2ccc(CN3CCOCC3)c(C)c2)ncc1Cl [Example 66, N-[1-[5-chloro-2-[3-methyl-4-(morpholinomethyl)anilino]pyrimidin-4-yl]-3-methyl-indol-5-yl]prop-2-enamide]	0.1 to 100	0.1 to 100	0.1 to 100	0.1 to 100
Cc1nn(C)cc1Nc1ncc(F)c(-n2cc(C)c3cc(NC(=O)/C=C/CN4CCOCC4)cnc32)n1 [Example 213, (E)-N-[1-[2-[(1,3-dimethylpyrazol-4-yl)amino]-5-fluoro-pyrimidin-4-yl]-3-methyl-pyrrolo[2,3-b]pyridin-5-yl]-4-morpholino-but-2-enamide]	> 1000	> 1000	> 1000	> 1000
Cc1cn(-c2nc(Nc3cnn(C[C@@H](C)O)c3)ncc2F)c2ncc(NC(=O)/C=C/CN(C)C)cc12 [Example 191, (E)-4-(dimethylamino)-N-[1-[5-fluoro-2-[[1-[(2R)-2-hydroxypropyl]pyrazol-4-yl]amino]pyrimidin-4-yl]-3-methyl-pyrrolo[2,3-b]pyridin-5-yl]but-2-enamide]	0.1 to 100	0.1 to 100	0.1 to 100	0.1 to 100
C=CC(=O)Nc1ccc2c(ccn2-c2nc(Nc3ccc(N4CCOCC4)cc3)ncc2Cl)c1 [Example 15, N-[1-[5-chloro-2-(4-morpholinoanilino)pyrimidin-4-yl]indol-5-yl]prop-2-enamide]	0.1 to 100	0.1 to 100	100 to 250	0.1 to 100
C#CC(=O)Nc1cnc2c(c1)c(C)cn2-c1nc(Nc2ccnn2C)ncc1C [Example 132, N-[3-methyl-1-[5-methyl-2-[(2-methylpyrazol-3-yl)amino]pyrimidin-4-yl]pyrrolo[2,3-b]pyridin-5-yl]prop-2-ynamide]	0.1 to 100	0.1 to 100	0.1 to 100	0.1 to 100
C=CC(=O)Nc1ccc2c(c1)c(C)cn2-c1nc(Nc2cn(C)nc2C)nnc1Cl [Example 225, N-[1-[6-chloro-3-[(1,3-dimethylpyrazol-4-yl)amino]-1,2,4-triazin-5-yl]-3-methyl-indol-5-yl]prop-2-enamide]	250 to 1000	250 to 1000	> 1000	> 1000
C=C(C)C(=O)Nc1ccc2c(c1)c(C)cn2-c1nc(Nc2ccnn2C)ncc1C [Example 104, 2-methyl-N-[3-methyl-1-[5-methyl-2-[(2-methylpyrazol-3-yl)amino]pyrimidin-4-yl]indol-5-yl]prop-2-enamide]	> 1000	> 1000	> 1000	> 1000
C=CC(=O)Nc1ccc2c(ccn2-c2nc(Nc3ccc(N4CCOCC4)c(F)c3)ncc2Cl)c1C [Example 17, N-[1-[5-chloro-2-(3-fluoro-4-morpholino-anilino)pyrimidin-4-yl]-4-methyl-indol-5-yl]prop-2-enamide]	100 to 250	0.1 to 100	250 to 1000	250 to 1000
CC#CC(=O)Nc1ccc2c(-c3nc(Nc4cnn(CCO)c4)ncc3Cl)cn(C)c2c1 [Example 135, N-[3-[5-chloro-2-[[1-(2-hydroxyethyl)pyrazol-4-yl]amino]pyrimidin-4-yl]-1-methyl-indol-6-yl]but-2-ynamide]	100 to 250	0.1 to 100	250 to 1000	0.1 to 100

Second part, the molecule after the results:

Kd (FGFR3) [nM]	Kd (FGFR3 (V555M)) [nM]	Kd (FGFR1) [nM]	Kd (FGFR2) [nM]	Compound
100 to 250	0.1 to 100	100 to 250	100 to 250	C=CC(=O)Nc1ccc2c(ccn2-c2nc(Nc3cnn(C)c3)ncc2Cl)c1C [Example 18, N-[1-[5-chloro-2-[(1-methylpyrazol-4-yl)amino]pyrimidin-4-yl]-4-methyl-indol-5-yl]prop-2-enamide]
0.1 to 100	> 1000	0.1 to 100	0.1 to 100	C=CC(=O)Nc1ccc2c(c1)c1ccccc1n2-c1nc(Nc2cnn(C)c2)ncc1F [Example 228, N-[9-[5-fluoro-2-[(1-methylpyrazol-4-yl)amino]pyrimidin-4-yl]carbazol-3-yl]prop-2-enamide]
> 1000	> 1000	> 1000	> 1000	C=CC(=O)Nc1ccc2c(c1)c(C)nn2-c1ccnc(Nc2ccnn2C)n1 [Example 87, N-[3-methyl-1-[2-[(2-methylpyrazol-3-yl)amino]pyrimidin-4-yl]indazol-5-yl]prop-2-enamide]
0.1 to 100	0.1 to 100	250 to 1000	0.1 to 100	C=CC(=O)Nc1ccc2c(-c3nc(Nc4cn(CC)nc4C)ncc3F)cn(C)c2c1 [Example 177, N-[3-[2-[(1-ethyl-3-methyl-pyrazol-4-yl)amino]-5-fluoro-pyrimidin-4-yl]-1-methyl-indol-6-yl]prop-2-enamide]
0.1 to 100	0.1 to 100	0.1 to 100	0.1 to 100	C=CC(=O)Nc1ccc2c(c1)c(C)cn2-c1nc(Nc2ccn(CC)n2)ncc1C [Example 93, N-[1-[2-[(1-ethylpyrazol-3-yl)amino]-5-methyl-pyrimidin-4-yl]-3-methylindol-5-yl]prop-2-enamide]
0.1 to 100	0.1 to 100	0.1 to 100	0.1 to 100	C#CC(=O)Nc1ccc2c(c1)c(C)cn2-c1nc(Nc2cnn(CCO)c2)ncc1F [Example 129, N-[1-[5-fluoro-2-[[1-(2-hydroxyethyl)pyrazol-4-yl]amino]pyrimidin-4-yl]-3-methyl-indol-5-yl]prop-2-ynamide]
0.1 to 100	0.1 to 100	0.1 to 100	0.1 to 100	C=CC(=O)Nc1ccc2c(c1)c(C)cn2-c1nc(Nc2cnn(C[C@H](C)OC)c2)ncc1F [Example 205]
> 1000	> 1000	> 1000	> 1000	C=CC(=O)Nc1cc(C)c2c(c1)c(C)cn2-c1nc(Nc2cnn(C)c2)ncc1Cl [Example 71, N-[1-[5-chloro-2-[(1-methylpyrazol-4-yl)amino]pyrimidin-4-yl]-3,7-dimethyl-indol-5-yl]prop-2-enamide]
